ChEMBL document CHEMBL4354822, “Ligand-Based Design of Nondimethylphenyl-Diarylpyrimidines with Improved Metabolic Stability, Safety, and Oral Pharmacokinetic Profiles” (J Med Chem, 2019)
pEC50, pIC50: −log10 of the molar value. Each block holds one molecule with its values, some of them ahead of it.

Legend:
[1] = Oral bioavailability in Sprague-Dawley rat at 1 mg/kg measured after 24 hrs by LCMS analysis; assay type: ADME, organism-based; conditions: in vivo
[2] = tested on: Human immunodeficiency virus 1; assay: Ratio of EC50 for test compound to EC50 for 4-[4-[[2-(4-cyanoanilino)pyrimidin-4-yl]amino]-3,5-dimethyl-phenyl]benzonitrile against HIV1 3B infected in human MT4 cells incubated for 5 days by MTT assay; assay type: functional
[3] = AUC in Sprague-Dawley rat at 10 mg/kg, po via gavage administration measured after 24 hrs by LCMS analysis; assay type: ADME, organism-based; design: dose 10 mg/kg, time < 24 hr, route oral; conditions: in vivo
[4] = Oral bioavailability in Sprague-Dawley rat at 10 mg/kg measured after 24 hrs by LCMS analysis; assay type: ADME, organism-based; conditions: in vivo
[5] = Cmax in Sprague-Dawley rat at 10 mg/kg, po via gavage administration measured after 24 hrs by LCMS analysis; assay type: ADME, organism-based; design: dose 10 mg/kg, route oral; conditions: in vivo
[6] = Metabolic stability in human liver microsomes at 1 uM measured up to 45 mins in presence of NADPH by LC/MS/MS analysis; assay type: ADME, Microsome
[7] = Intrinsic clearance in human liver microsomes assessed per mg protein at 1 uM measured up to 45 mins in presence of NADPH by LC/MS/MS analysis; assay type: ADME, Microsome; conditions: read-out: CLH
[8] = MRTinfinity in Sprague-Dawley rat at 5 mg/kg, po via gavage administration measured after 24 hrs by LCMS analysis; assay type: ADME, organism-based; conditions: in vivo
[9] = Tmax in Sprague-Dawley rat at 5 mg/kg, po via gavage administration measured after 24 hrs by LCMS analysis; assay type: ADME, organism-based; conditions: in vivo
[10] = AUCinfinity in Sprague-Dawley rat at 1 mg/kg, iv measured after 24 hrs by LCMS analysis; assay type: ADME, organism-based; design: dose 1 mg/kg, route intravenous, time infinity; conditions: in vivo
[11] = Oral bioavailability in Sprague-Dawley rat at 5 mg/kg measured after 24 hrs by LCMS analysis; assay type: ADME, organism-based; conditions: in vivo
[12] = Acute toxicity in mouse assessed as change in behavior at 2 mg/kg, ig measured up to 14 days; assay type: organism-based; conditions: in vivo, po, 336 h
[13] = Tmax in Sprague-Dawley rat at 10 mg/kg, po via gavage administration measured after 24 hrs by LCMS analysis; assay type: ADME, organism-based; conditions: in vivo
[14] = Acute toxicity in mouse assessed as change in liver at 2 mg/kg, ig measured up to 14 days by H and E staining based assay; assay type: organism-based; conditions: in vivo, po, 336 h
[15] = Acute toxicity in mouse assessed as mortality at 2 mg/kg, ig measured up to 14 days; assay type: organism-based; conditions: in vivo, po, 336 h
[16] = AUCinfinity in Sprague-Dawley rat at 5 mg/kg, po via gavage administration measured after 24 hrs by LCMS analysis; assay type: ADME, organism-based; design: dose 5 mg/kg, route oral, time infinity; conditions: in vivo
[17] = AUC in Sprague-Dawley rat at 5 mg/kg, po via gavage administration measured after 24 hrs by LCMS analysis; assay type: ADME, organism-based; design: time < 24 hr, dose 5 mg/kg, route oral; conditions: in vivo
[18] = MRTinfinity in Sprague-Dawley rat at 1 mg/kg, iv measured after 24 hrs by LCMS analysis; assay type: ADME, organism-based; conditions: in vivo
[19] = Acute toxicity in mouse assessed as change in kidney at 2 mg/kg, ig measured up to 14 days by H and E staining based assay; assay type: organism-based; conditions: in vivo, po, 336 h
[20] = Acute toxicity in mouse assessed as change in brain at 2 mg/kg, ig measured up to 14 days by H and E staining based assay; assay type: organism-based; conditions: in vivo, po, 336 h
[21] = Half life in Sprague-Dawley rat at 5 mg/kg, po via gavage administration measured after 24 hrs by LCMS analysis; assay type: ADME, organism-based; conditions: in vivo
[22] = AUC in Sprague-Dawley rat at 1 mg/kg, iv measured after 24 hrs by LCMS analysis; assay type: ADME, organism-based; design: time < 24 hr, dose 1 mg/kg, route intravenous; conditions: in vivo
[23] = Acute toxicity in mouse assessed as change in heart at 2 mg/kg, ig measured up to 14 days by H and E staining based assay; assay type: organism-based; conditions: in vivo, po, 336 h
[24] = Half life in Sprague-Dawley rat at 1 mg/kg, iv measured after 24 hrs by LCMS analysis; assay type: ADME, organism-based; conditions: in vivo
[25] = AUCinfinity in Sprague-Dawley rat at 10 mg/kg, po via gavage administration measured after 24 hrs by LCMS analysis; assay type: ADME, organism-based; design: dose 10 mg/kg, time infinity, route oral; conditions: in vivo
[26] = Cmax in Sprague-Dawley rat at 5 mg/kg, po via gavage administration measured after 24 hrs by LCMS analysis; assay type: ADME, organism-based; design: dose 5 mg/kg, route oral; conditions: in vivo
[27] = Aqueous solubility of compound at 2 mg measured for 24 hrs by HPLC analysis; assay type: physicochemical; conditions: aqueous medium
[28] = Intrinsic clearance in rat liver microsomes assessed per mg protein at 1 uM measured up to 45 mins in presence of NADPH by LC/MS/MS analysis; assay type: ADME, Microsome
[29] = Metabolic stability in rat liver microsomes at 1 uM measured up to 45 mins in presence of NADPH by LC/MS/MS analysis; assay type: ADME, Microsome
[30] = Acute toxicity in mouse assessed as change in body weight at 2 mg/kg, ig measured up to 14 days; assay type: organism-based; conditions: in vivo, po, 336 h
[31] = Acute toxicity in mouse assessed as change in lung at 2 mg/kg, ig measured up to 14 days by H and E staining based assay; assay type: organism-based; conditions: in vivo, po, 336 h
[32] = MRTinfinity in Sprague-Dawley rat at 10 mg/kg, po via gavage administration measured after 24 hrs by LCMS analysis; assay type: ADME, organism-based; conditions: in vivo
[33] = Half life in Sprague-Dawley rat at 10 mg/kg, po via gavage administration measured after 24 hrs by LCMS analysis; assay type: ADME, organism-based; conditions: in vivo
[34] = tested on: Human immunodeficiency virus 1; assay: Antiviral activity against HIV1 3B infected in human MT4 cells incubated assessed as reduction in virus-induced cytopathic effect for 5 days by MTT assay; assay type: functional, organism-based; conditions: Human immunodeficiency virus 1, 3B, MT4, 120 h
[35] = tested on: Human immunodeficiency virus 1; assay: Antiviral activity against HIV1 harboring reverse transcriptase L100I mutant infected in human MT4 cells assessed as reduction in virus-induced cytopathic effect incubated for 5 days by MTT assay; assay type: functional, organism-based; conditions: Human immunodeficiency virus 1, MT4, 120 h
MT4 = assay: Cytotoxicity against human MT4 cells assessed as reduction in cell viability incubated for 5 days by MTT assay; assay type: functional; conditions: MT4, 120 h
[36] = tested on: Human immunodeficiency virus 1; assay: Antiviral activity against HIV1 harboring reverse transcriptase E138K mutant infected in human MT4 cells assessed as reduction in virus-induced cytopathic effect incubated for 5 days by MTT assay; assay type: functional, organism-based; conditions: Human immunodeficiency virus 1, MT4, 120 h
[37] = tested on: Human immunodeficiency virus 1; assay: Antiviral activity against HIV1 harboring reverse transcriptase Y181C mutant infected in human MT4 cells assessed as reduction in virus-induced cytopathic effect incubated for 5 days by MTT assay; assay type: functional, organism-based; conditions: Human immunodeficiency virus 1, MT4, 120 h
[38] = molecular target: Human immunodeficiency virus type 1 reverse transcriptase (Human immunodeficiency virus 1, UniProt Q72547); assay: Inhibition of recombinant wild type HIV1 reverse transcriptase p66/p51 incubated for 40 mins by picogreen dye-based spectrofluorometric analysis
[39] = tested on: Human immunodeficiency virus 1; assay: Ratio of EC50 for etravirine to EC50 for test compound for antiviral activity against HIV1 harboring reverse transcriptase L100I mutant infected in human MT4 cells assessed as reduction in virus-induced cytopathic effect incubated for 5 days by MTT assay; assay type: functional
[40] = tested on: Human immunodeficiency virus 1; assay: Antiviral activity against HIV1 harboring reverse transcriptase Y188L mutant infected in human MT4 cells assessed as reduction in virus-induced cytopathic effect incubated for 5 days by MTT assay; assay type: functional, organism-based; conditions: Human immunodeficiency virus 1, MT4, 120 h
[41] = Selectivity index, ratio of CC50 for human MT4 cells to EC50 for antiviral activity against HIV1 3B infected in human MT4 cells incubated for 5 days by MTT assay; assay type: toxicity, cell-based; conditions: MT4 cells (uninfected for CC50; HIV-1 3B infected for EC50)
[42] = tested on: Human immunodeficiency virus 1; assay: Ratio of EC50 for efavirenz to EC50 for test compound for antiviral activity against HIV1 harboring reverse transcriptase L100I mutant infected in human MT4 cells assessed as reduction in virus-induced cytopathic effect incubated for 5 days by MTT assay; assay type: functional
[43] = molecular target: Human immunodeficiency virus type 1 reverse transcriptase (Human immunodeficiency virus 1) (UniProt Q72547); assay: Ratio of IC50 for nevirapine to IC50 for test compound for recombinant wild type HIV1 reverse transcriptase p66/p51
[44] = tested on: Human immunodeficiency virus 1; assay: Ratio of EC50 for rilpivirine to EC50 for test compound for antiviral activity against HIV1 harboring reverse transcriptase L100I mutant infected in human MT4 cells assessed as reduction in virus-induced cytopathic effect incubated for 5 days by MTT assay; assay type: functional
[45] = tested on: Human immunodeficiency virus 1; assay: Antiviral activity against HIV1 harboring reverse transcriptase K103N mutant infected in human MT4 cells assessed as reduction in virus-induced cytopathic effect incubated for 5 days by MTT assay; assay type: functional, organism-based; conditions: Human immunodeficiency virus 1, MT4, 120 h

bioavailability [1]: 32%
Compound: Cc1cc(/C=C/C#N)cc(C)c1Nc1ccnc(Nc2ccc(C#N)cc2)n1.Cl [RILPIVIRINE HYDROCHLORIDE]

Compound: N#Cc1ccc(Nc2nc(Oc3ccc(-c4ccc(C#N)cc4)c(F)c3F)c3sccc3n2)cc1
Ratio EC50 [2]: 14

Compound: Cl.N#Cc1ccc(Nc2nccc(Nc3c(F)cc(-c4ccc(C#N)cc4)cc3F)n2)cc1
AUC at 24 h [3]: 12.1 µg·h/mL
bioavailability [4]: 33.6%
Cmax [5]: 1.23 µg/mL
half-life at 1 µM [6]: 0.527 h
k el at 0.75 h, 1 µM [6]: 0.000365 s⁻¹
microsomal CLint at 1 µM [7]: 21.9 µL/min/mg
MRT inf [8]: 8.37 h
Tmax [9]: 5.33 h
AUC(0-inf) [10]: 3.64 µg·h/mL
bioavailability [11]: 44%
Activity [12]: Non-Toxic
Tmax [13]: 6.67 h
Activity [14]: Non-Toxic
Activity [15]: Non-Toxic
AUC(0-inf) [16]: 8 µg·h/mL
AUC at 24 h [17]: 7.89 µg·h/mL
MRT inf [18]: 4.69 h
Activity [19]: Non-Toxic
Activity [20]: Non-Toxic
half-life [21]: 3.23 h
AUC at 24 h [22]: 3.56 µg·h/mL
Activity [23]: Non-Toxic
half-life [24]: 4.18 h
AUC(0-inf) [25]: 12.2 µg·h/mL
Cmax [26]: 0.887 µg/mL
solubility at 24 h [27]: 5.6 µg/mL
CLH ([28]; microsomes, 0.75 h, 1 µM): 44.3 µL/min/mg
k el at 0.75 h, 1 µM ([29]; liver microsomes): 0.000262 s⁻¹
t1/2 ([29]; microsomes, 0.75 h, 1 µM): 0.738 h
Activity [30]: Non-Toxic
Activity [31]: Non-Toxic
MRT inf [32]: 8.27 h
half-life [33]: 3.18 h

Compound: Cc1cc(C#N)cc(C)c1Oc1nc(Nc2ccc(C#N)cc2)nc(N)c1Br [ETRAVIRINE]
pEC50 [34]: 8.20
pEC50 [35]: 8.15
CC50 (MT4): > 4610 nM
solubility at 24 h [27]: < 1 µg/mL
pEC50 [36]: 8.19
pEC50 [37]: 7.92

k el at 0.75 h, 1 µM [6]: 0.00079 s⁻¹
microsomal CLint at 1 µM [7]: 47.4 µL/min/mg
solubility at 24 h [27]: < 1 µg/mL
microsomal CLint at 1 µM ([28]; liver microsomes, read-out: CLH): 45 µL/min/mg
half-life at 1 µM ([29]; liver microsomes): 0.257 h
k el at 0.75 h, 1 µM ([29]; liver microsomes): 0.00075 s⁻¹
Compound: Cc1cc(-c2ccc(C#N)cc2)cc(C)c1Nc1ccnc(Nc2ccc(C#N)cc2)n1

Compound: Cc1cc(-c2ccc(C#N)cc2)cc(Cl)c1Oc1ccnc(Nc2ccc(C#N)cc2)n1
pEC50 [34]: 8.47
pIC50 [38]: 7.97
Ratio EC50 [39]: 2 - 568
pEC50 [35]: > 8.43
pEC50 [40]: 6.70
selectivity ratio at 120 h [41]: > 86200
CC50 (MT4): > 286000 nM
Ratio EC50 [42]: 2 - 568
Ratio IC50 [43]: 21 to 109
pEC50 [36]: 8.18
Ratio EC50 [44]: 2 - 568
pEC50 [37]: 7.98
pEC50 [45]: > 8.37

Compound: N#Cc1ccc(Nc2nccc(Nc3c(F)cc(-c4ccc(C#N)cc4)cc3F)n2)cc1
pEC50 [34]: 8.89
pIC50 [38]: 8.33
pEC50 [35]: 7.97
pEC50 [40]: 6.89
selectivity ratio at 120 h [41]: > 238000
CC50 (MT4): > 295000 nM
solubility at 24 h [27]: < 1 µg/mL
pEC50 [36]: 8.72
pEC50 [37]: 8.21
pEC50 [45]: 8.59
